These results are taken from PubChem BioAssay AID330 (DTP/NCI, 2004).

The test has as its system P388 leukemia ip, CD2F1 mice, survival T/C. Put plainly: NCI In Vivo Anticancer Drug Screen. Data for tumor model P388 Leukemia (intraperitoneal) in CD2F1 (CDF1) mice. The following applies: endpoint: median survival time, higher = longer survival. The method, boiled down:
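Mice carrying the transplanted tumor received test compound or vehicle. Survival was recorded in each group, and the value is the treated-group measurement divided by that of the vehicle-treated control group.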

Setting [1] is: dose: 50.0 mg/kg/injection, schedule: Q01DX005 (ip), vehicle: Klucel (hydroxypropylcellulose) (HPC).
[2] abbreviates: dose: 100.0 mg/kg/injection, schedule: Q01DX005 (ip), vehicle: Klucel (hydroxypropylcellulose) (HPC).
Setting [3] is: dose: 12.5 mg/kg/injection, schedule: Q01DX005 (ip), vehicle: saline with Tween-80.
Where [4] appears, read: dose: 25.0 mg/kg/injection, schedule: Q01DX005 (ip), vehicle: saline with Tween-80.
The mark [5] stands for this setting: dose: 50.0 mg/kg/injection, schedule: Q01DX005 (ip), vehicle: saline with Tween-80.
[6] abbreviates: dose: 100.0 mg/kg/injection, schedule: Q04DX002 (ip), vehicle: saline with Tween-80.
[7] abbreviates: dose: 200.0 mg/kg/injection, schedule: Q04DX002 (ip), vehicle: saline with Tween-80.
Setting [8] is: dose: 400.0 mg/kg/injection, schedule: Q04DX002 (ip), vehicle: saline with Tween-80.
Setting [9] is: dose: 60.0 mg/kg/injection, schedule: Q01DX005 (ip), vehicle: saline with Tween-80.
[10] abbreviates: dose: 200.0 mg/kg/injection, schedule: Q01DX005 (ip), vehicle: Klucel (hydroxypropylcellulose) (HPC).
Where [11] appears, read: dose: 50.0 mg/kg/injection, schedule: Q01DX005 (ip), vehicle: saline.
The mark [12] stands for this setting: dose: 100.0 mg/kg/injection, schedule: Q01DX005 (ip), vehicle: saline.
The mark [13] stands for this setting: dose: 200.0 mg/kg/injection, schedule: Q01DX005 (ip), vehicle: saline.
Setting [14] is: dose: 120.0 mg/kg/injection, schedule: Q01DX005 (ip), vehicle: saline with Tween-80.
[15] abbreviates: dose: 100.0 mg/kg/injection, schedule: Q01DX001 (ip), vehicle: saline with Tween-80.
Where [16] appears, read: dose: 200.0 mg/kg/injection, schedule: Q01DX001 (ip), vehicle: saline with Tween-80.
The mark [17] stands for this setting: dose: 100.0 mg/kg/injection, schedule: Q01DX005 (ip), vehicle: saline with Tween-80.
[18] abbreviates: dose: 200.0 mg/kg/injection, schedule: Q01DX005 (ip), vehicle: saline with Tween-80.

“And” between values parts separate entries of the source, which are not always exact repeats. Identical values can stand only once. Inconclusive results and toxic doses are left out.

As for `COc1cc(C(=O)N=Nc2c(O)[nH]c3ccc(Br)cc23)cc(OC)c1OC`, the T/C (dose: 3.13 mg/kg/injection, schedule: Q01DX009 (ip), vehicle: Klucel (hydroxypropylcellulose) (HPC)) was 115 % of control; the T/C (dose: 6.25 mg/kg/injection, schedule: Q01DX009 (ip), vehicle: Klucel (hydroxypropylcellulose) (HPC)) was 106 % of control; the T/C (dose: 12.5 mg/kg/injection, schedule: Q01DX009 (ip), vehicle: Klucel (hydroxypropylcellulose) (HPC)) is 105 % of control; the T/C (dose: 400.0 mg/kg/injection, schedule: Q01DX009 (ip), vehicle: Klucel (hydroxypropylcellulose) (HPC)) is 86 % of control.
Take `CCN(CC)CC(O)c1cc(-c2ccccc2)nc2ccc(OC)cc12` (stereo not given): the T/C was 100 % of control under setting [1] and 92 % of control under setting [2].
As for `C/C(=N\NC(=O)c1ccncc1)c1cccc(/C(C)=N/NC(=O)c2ccncc2)n1.O=S(=O)([O-])[O-].[Fe+2]`, the T/C runs as follows: under setting [3], 97 % of control; under setting [4], 100 % of control; under setting [5], 87 % of control and 95 % of control.
Regarding `CCN(CC)OCC=C(C)CCC=C(C)C` (mixture of isomers), the T/C is 111 % of control under setting [6], 109 % of control under setting [7] and 108 % of control under setting [8].
Turning to `Cc1cc2[nH]c3c(C#N)c(OC(=O)N(C)C)c(C)c(=O)n3c2cc1C`, the T/C runs as follows: (dose: 15.0 mg/kg/injection, schedule: Q01DX005 (ip), vehicle: saline with Tween-80) 100 % of control; (dose: 30.0 mg/kg/injection, schedule: Q01DX005 (ip), vehicle: saline with Tween-80) 108 % of control; under setting [9], 100 % of control and 93 % of control.
As to `CCCCCCCCCCCCOCC(O)Cn1cnc2c(N)ncnc21` (stereo not given), the T/C is, setting by setting: under setting [1], 98 % of control; under setting [2], 94 % of control; under setting [10], 94 % of control.
With `COc1cc(C)ccc1C1=NC(C)(c2ccc(C)cc2OC)NC1=S` (stereo not given), the T/C runs as follows: (dose: 37.5 mg/kg/injection, schedule: Q01DX009 (ip), vehicle: Klucel (hydroxypropylcellulose) (HPC)) 124 % of control; (dose: 75.0 mg/kg/injection, schedule: Q01DX009 (ip), vehicle: Klucel (hydroxypropylcellulose) (HPC)) 120 % of control.
Regarding `ClCCN(CCCl)c1ccc(CN2CCCCCC2)cc1`, the T/C (dose: 6.25 mg/kg/injection, schedule: Q01DX009 (ip), vehicle: saline) was 111 % of control; the T/C (dose: 12.5 mg/kg/injection, schedule: Q01DX009 (ip), vehicle: saline) was 114 % of control; the T/C (dose: 25.0 mg/kg/injection, schedule: Q01DX009 (ip), vehicle: saline) is 116 % of control.
For `CC1(C)CC(OP2(=O)NCCCO2)CC(C)(C)N1O` (stereo not given), the T/C by setting is: (dose: 27.5 mg/kg/injection, schedule: Q01DX001 (ip), vehicle: saline) 150 % of control; (dose: 55.0 mg/kg/injection, schedule: Q01DX001 (ip), vehicle: saline) 165 % of control.
For `COC(=O)c1oc2c(c1C(=O)OC)c1ccccc1n2C(C)=O`, the T/C is, setting by setting: under setting [6], 102 % of control; under setting [7], 105 % of control; under setting [8], 100 % of control.
For `O=C(O)c1cc(Cl)nnc1Cl`, the T/C is 109 % of control under setting [11], 100 % of control under setting [12] and 104 % of control under setting [13].
For `NC(CSC1c2ccccc2-c2ccccc21)C(=O)O` (stereo not given), the T/C is, setting by setting: under setting [9], 90 % of control; under setting [14], 98 % of control; (dose: 240.0 mg/kg/injection, schedule: Q01DX005 (ip), vehicle: saline with Tween-80) 92 % of control.
As for `CC12CC(CC1=O)CC2S(=O)(=O)O` (stereo not given), the T/C by setting is: under setting [15], 96 % of control; under setting [16], 102 % of control.
For the compound `CCOC(=O)C(C(C)N1CCOCC1)N1CCOCC1` (stereo not given), the T/C was 110 % of control under setting [1], 100 % of control under setting [2] and 101 % of control under setting [10].
Take `O=C(NC1CCCCC1)OCC1OC(n2cnc3c(=O)[nH]cnc32)C(OC(=O)NC2CCCCC2)C1OC(=O)NC1CCCCC1` (stereo not given): the T/C runs as follows: (dose: 6.25 mg/kg/injection, schedule: Q01DX005 (ip), vehicle: saline with Tween-80) 98 % of control; under setting [3], 90 % of control; under setting [4], 90 % of control.
With `Cc1cc2c(C(C)C)c(O)c(O)c(C=Nc3ccc(C(=O)NCC(=O)O)cc3)c2c(O)c1-c1c(C)cc2c(C(C)C)c(O)c(O)c(C=Nc3ccc(C(=O)NCC(=O)O)cc3)c2c1O`, the T/C under setting [5] was 94 % of control and the T/C under setting [17] is 100 % of control.
Regarding `COC(=O)C1(c2ccccc2)OP2(N(C)C)(OC1(C(=O)OC)c1ccccc1)N(C)CCN2C` (stereo not given), the T/C (dose: 50.0 mg/kg/injection, schedule: Q01DX005 (ip), vehicle: saline + Tween-80 + alcohol) was 104 % of control; the T/C under setting [5] was 102 % of control; the T/C (dose: 100.0 mg/kg/injection, schedule: Q01DX005 (ip), vehicle: saline + Tween-80 + alcohol) was 100 % of control; the T/C under setting [17] is 102 % of control; the T/C (dose: 200.0 mg/kg/injection, schedule: Q01DX005 (ip), vehicle: saline + Tween-80 + alcohol) is 100 % of control; the T/C under setting [18] was 105 % of control.
Turning to `FC(F)(F)C1=C(C(F)(F)F)OP23(OCCC(CO2)O3)O1` (stereo not given), the T/C is, setting by setting: (dose: 50.0 mg/kg/injection, schedule: Q04DX003 (ip), vehicle: Klucel (hydroxypropylcellulose) (HPC)) 105 % of control; (dose: 100.0 mg/kg/injection, schedule: Q04DX003 (ip), vehicle: Klucel (hydroxypropylcellulose) (HPC)) 108 % of control; (dose: 200.0 mg/kg/injection, schedule: Q04DX003 (ip), vehicle: Klucel (hydroxypropylcellulose) (HPC)) 99 % of control; (dose: 400.0 mg/kg/injection, schedule: Q04DX003 (ip), vehicle: Klucel (hydroxypropylcellulose) (HPC)) 103 % of control.
Turning to `CCc1cnc(=S)n(-c2ccccc2)c1`, the T/C under setting [15] was 99 % of control and the T/C under setting [16] was 95 % of control.
As for `O=C1Nc2ccc3[nH]ncc3c2C1=O`, the T/C reads like this: under setting [5], 101 % of control; under setting [17], 103 % of control; under setting [18], 109 % of control.
For `N#Cc1ncc(C=P(c2ccccc2)(c2ccccc2)c2ccccc2)n(O)c1=N`, the T/C (dose: 50.0 mg/kg/injection, schedule: Q01DX009 (ip), vehicle: saline with Tween-80) is 101 % of control and the T/C (dose: 100.0 mg/kg/injection, schedule: Q01DX009 (ip), vehicle: saline with Tween-80) is 104 % of control.
For the compound `CC1=COC2CCCCC2O1` (stereo not given) (tested in a mixture with another compound), the T/C is 111 % of control (dose: 25.0 mg/kg/injection, schedule: Q01DX009 (ip), vehicle: acetone) and 105 % of control (dose: 50.0 mg/kg/injection, schedule: Q01DX009 (ip), vehicle: acetone).
With `CC(NC(=O)C(N)Cc1ccc(Cl)cc1)P(=O)(O)O` (stereo not given), the T/C is, setting by setting: (dose: 12.5 mg/kg/injection, schedule: Q04DX002 (ip), vehicle: saline with Tween-80) 100 % of control; (dose: 25.0 mg/kg/injection, schedule: Q04DX002 (ip), vehicle: saline with Tween-80) 94 % of control; (dose: 50.0 mg/kg/injection, schedule: Q04DX002 (ip), vehicle: saline with Tween-80) 103 % of control.
As to `COc1cc(C2c3cc4c(c(OC)c3C(O)C3CC(=O)OC23)OCO4)cc(OC)c1OC` (stereo not given), the T/C reads like this: under setting [9], 115 % of control; under setting [14], 116 % of control.
Regarding `CCCCCCCCCCCC[S+](C)CCCCCCCC` (stereo not given), the T/C runs as follows: (dose: 0.78 mg/kg/injection, schedule: Q01DX005 (ip), vehicle: saline with Tween-80) 111 % of control and 117 % of control; (dose: 1.56 mg/kg/injection, schedule: Q01DX005 (ip), vehicle: saline with Tween-80) 122 % of control; (dose: 3.13 mg/kg/injection, schedule: Q01DX005 (ip), vehicle: saline with Tween-80) 124 % of control.
Consider `CC12OCCC1C(c1ccccc1[N+](=O)[O-])Nc1ccccc12` (stereo not given), for which the T/C reads like this: under setting [15], 114 % of control; under setting [16], 97 % of control; (dose: 400.0 mg/kg/injection, schedule: Q01DX001 (ip), vehicle: saline with Tween-80) 94 % of control.
Regarding `CC(=O)/C(=C\c1ccc(C)cc1)C(=O)CCN(C)C`, the T/C under setting [11] was 108 % of control, the T/C under setting [12] was 108 % of control and the T/C under setting [13] is 111 % of control.
For `COc1cc(N)c2c(c1N)C(=O)c1ccccc1C2=O`, the T/C under setting [1] is 98 % of control, the T/C under setting [2] is 101 % of control and the T/C under setting [10] was 97 % of control.
